Source: ChEMBL document CHEMBL5252588, “Palladium-Catalyzed Synthesis, Acetylcholinesterase Inhibition, and Neuroprotective Activities of N-Aryl Galantamine Analogues” (J Nat Prod, 2023)
The source made the active and inactive calls. The rule behind the calls is not given here.

Key:
[1] = biological target: Acetylcholinesterase (Electrophorus electricus) (UniProt O42275); assay: Inhibition of electric eel AChE using acetylthiocholine iodide as substrate at 50 to 100 uM preincubated with compounds for 20 mins followed by substrate addition and measured after 20 mins by Ellman's method relative to control; conditions: dose 50-100 µM, time 40.0 min
Sequence of Acetylcholinesterase (Electrophorus electricus) (O42275 24-633 limits assumed): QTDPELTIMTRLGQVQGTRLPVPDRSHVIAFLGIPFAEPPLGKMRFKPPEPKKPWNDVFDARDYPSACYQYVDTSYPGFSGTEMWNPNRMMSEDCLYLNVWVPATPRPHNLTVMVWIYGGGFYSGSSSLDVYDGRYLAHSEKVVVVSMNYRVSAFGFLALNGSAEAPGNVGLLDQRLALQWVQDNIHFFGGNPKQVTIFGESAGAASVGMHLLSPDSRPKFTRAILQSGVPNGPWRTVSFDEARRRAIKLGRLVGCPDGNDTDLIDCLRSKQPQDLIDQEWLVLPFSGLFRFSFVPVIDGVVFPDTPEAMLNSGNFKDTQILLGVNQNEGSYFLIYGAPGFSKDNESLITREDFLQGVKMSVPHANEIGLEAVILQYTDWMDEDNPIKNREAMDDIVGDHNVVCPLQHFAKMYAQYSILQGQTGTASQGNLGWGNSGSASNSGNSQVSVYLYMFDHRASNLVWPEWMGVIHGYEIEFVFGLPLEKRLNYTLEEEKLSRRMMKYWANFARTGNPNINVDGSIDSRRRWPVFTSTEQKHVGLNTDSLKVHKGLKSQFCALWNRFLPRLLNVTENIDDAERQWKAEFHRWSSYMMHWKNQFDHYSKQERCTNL

[2] = biological target: Cholinesterase (Equus caballus) (UniProt P81908); assay: Inhibition of equine serum BChE using butyrylthiocholine iodide as substrate at 50 to 100 uM preincubated for 20 mins followed by substrate addition and measured after 20 mins by Ellman's method; conditions: dose 50-100 µM, time 40.0 min
Sequence of Cholinesterase (Equus caballus) (P81908 whole entry): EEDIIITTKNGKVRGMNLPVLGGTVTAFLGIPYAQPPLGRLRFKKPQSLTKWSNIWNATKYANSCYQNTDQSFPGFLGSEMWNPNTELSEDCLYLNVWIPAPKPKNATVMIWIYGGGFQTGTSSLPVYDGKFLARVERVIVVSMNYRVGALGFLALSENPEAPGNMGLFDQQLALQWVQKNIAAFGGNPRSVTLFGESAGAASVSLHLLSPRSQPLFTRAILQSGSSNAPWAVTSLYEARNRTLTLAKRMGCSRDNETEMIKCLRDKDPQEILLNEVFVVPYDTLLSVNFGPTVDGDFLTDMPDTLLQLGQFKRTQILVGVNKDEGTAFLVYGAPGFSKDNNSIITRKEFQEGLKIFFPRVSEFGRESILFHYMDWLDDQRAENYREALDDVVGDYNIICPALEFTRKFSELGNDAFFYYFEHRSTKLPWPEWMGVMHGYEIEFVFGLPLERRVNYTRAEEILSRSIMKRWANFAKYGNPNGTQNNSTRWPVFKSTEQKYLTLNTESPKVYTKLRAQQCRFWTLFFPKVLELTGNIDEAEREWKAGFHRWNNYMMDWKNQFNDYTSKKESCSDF

SH-SY5Y [3] = assay: Neuroprotective activity against H2O2-induced injury in human SH-SY5Y cells assessed as […] in cell viability at 50 uM preincubated with compound for 24 hrs followed by H2O2-addition and measured after 4 hrs by MTT assay relative to control; type: functional; conditions: time 28 hrs
SH-SY5Y [4] = assay: Cytotoxicity against human SH-SY5Y cells assessed as reduction in cell viability; type: toxicity, cell-based
[5] = biological target: Acetylcholinesterase (Electrophorus electricus) (UniProt O42275); assay: Inhibition of electric eel AChE using acetylthiocholine iodide as substrate at 50 uM preincubated with compounds for 20 mins followed by substrate addition and measured after 20 mins by Ellman's method relative to control; conditions: time 40.0 min
Acetylcholinesterase = Acetylcholinesterase (Electrophorus electricus, UniProt O42275); assay: Inhibition of electric eel AChE using acetylthiocholine iodide as substrate preincubated with compounds for 20 mins followed by substrate addition and measured after 20 mins by Ellman's method relative to control
Sequence of Acetylcholinesterase (O42275 whole entry): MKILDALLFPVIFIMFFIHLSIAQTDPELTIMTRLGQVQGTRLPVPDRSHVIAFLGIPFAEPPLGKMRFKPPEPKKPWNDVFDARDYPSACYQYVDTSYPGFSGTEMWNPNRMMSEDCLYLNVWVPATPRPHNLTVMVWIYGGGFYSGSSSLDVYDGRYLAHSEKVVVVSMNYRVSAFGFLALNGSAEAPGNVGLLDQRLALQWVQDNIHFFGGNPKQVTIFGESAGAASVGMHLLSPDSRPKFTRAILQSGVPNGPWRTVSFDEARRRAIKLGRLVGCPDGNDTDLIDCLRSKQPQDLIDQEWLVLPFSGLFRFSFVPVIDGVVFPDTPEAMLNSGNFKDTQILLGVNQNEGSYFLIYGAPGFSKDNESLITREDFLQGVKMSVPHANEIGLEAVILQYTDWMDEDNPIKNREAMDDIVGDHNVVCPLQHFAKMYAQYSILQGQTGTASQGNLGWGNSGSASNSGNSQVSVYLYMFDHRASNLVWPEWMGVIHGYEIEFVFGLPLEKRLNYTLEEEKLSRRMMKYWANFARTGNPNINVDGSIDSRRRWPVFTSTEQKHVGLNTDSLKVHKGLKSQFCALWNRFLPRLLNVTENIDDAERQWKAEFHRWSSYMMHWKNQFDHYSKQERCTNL

SH-SY5Y [6] = assay: Neuroprotective activity against H2O2-induced injury in human SH-SY5Y cells assessed as inhibition of H2O2-induced apoptosis at 50 uM preincubated with compound for 24 hrs followed by H2O2-addition and measured after 4 hrs by TUNEL staining based analysis; type: functional, cell-based; conditions: time 28.0 hrs
SH-SY5Y [7] = assay: Neuroprotective activity against H2O2-induced injury in human SH-SY5Y cells assessed as increase in Bcl-2 protein expression at 50 uM preincubated with compound for 24 hrs followed by H2O2-addition and measured after 4 hrs by immunoblot analysis; type: functional, cell-based; conditions: time 28.0 hrs
SH-SY5Y [8] = assay: Neuroprotective activity against H2O2-induced injury in human SH-SY5Y cells assessed as decrease in caspase-3 protein expression at 50 uM preincubated with compound for 24 hrs followed by H2O2-addition and measured after 4 hrs by immunoblot analysis; type: functional, cell-based; conditions: time 28.0 hrs
SH-SY5Y [9] = assay: Neuroprotective activity against H2O2-induced injury in human SH-SY5Y cells assessed as decrease in cleaved caspase-3 at 50 uM preincubated with compound for 24 hrs followed by H2O2-addition and measured after 4 hrs by immunoblot analysis; type: functional, cell-based; conditions: time 28.0 hrs

Structure (SMILES) | inhibition [1] [%] | inhibition [2] | Activity (SH-SY5Y [3]) [%] | also measured
COc1ccc2c3c1O[C@H]1C[C@@H](O)C=C[C@@]31CCN(c1ccc3ncccc3c1)C2 | < 50 | inactive | 56 | 
COc1ccc2c3c1O[C@H]1C[C@@H](O)C=C[C@@]31CCN(c1ccc(C(C)(C)C)cc1)C2 | < 50 | inactive |  | Activity (SH-SY5Y [4]): Toxic
COc1ccc(N2CC[C@@]34C=C[C@H](O)C[C@@H]3Oc3c(OC)ccc(c34)C2)cc1 | < 50 | inactive | 37 | 
COc1ccc2c3c1O[C@H]1C[C@@H](O)C=C[C@@]31CCN(c1ccc(C(F)(F)F)nc1)C2 |  | inactive | 63 | 
COc1ccc2c3c1O[C@H]1C[C@@H](O)C=C[C@@]31CCN(c1cc(C)ccn1)C2 |  | inactive | 41 | 
CCOc1ccc(N2CC[C@@]34C=C[C@H](O)C[C@@H]3Oc3c(OC)ccc(c34)C2)nc1 |  | inactive | 41 | 
COc1ccc2c3c1O[C@H]1C[C@@H](O)C=C[C@@]31CCN(c1ccc3c(c1)OCO3)C2 | < 50 | inactive | 39 | 
COc1cccc(N2CC[C@@]34C=C[C@H](O)C[C@@H]3Oc3c(OC)ccc(c34)C2)n1 |  | inactive | 66 | 
COc1ccc2c3c1O[C@H]1C[C@@H](O)C=C[C@@]31CCN(c1ncccn1)C2 |  | inactive | 60 | 
COc1ccc2c3c1O[C@H]1C[C@@H](O)C=C[C@@]31CCN(c1cccc(C)n1)C2 |  | inactive | 55 | inhibition [5]: > 50%; IC50 (Acetylcholinesterase): 17 µM
COc1ccc2c3c1O[C@H]1C[C@@H](O)C=C[C@@]31CCN(c1cc(C(F)(F)F)cc(C(F)(F)F)c1)C2 | < 50 | inactive |  | Activity (SH-SY5Y [4]): Toxic
COc1cccnc1N1CC[C@@]23C=C[C@H](O)C[C@@H]2Oc2c(OC)ccc(c23)C1 |  | inactive | 40 | inhibition [5]: > 50%; IC50 (Acetylcholinesterase): 27 µM
COc1ccc2c3c1O[C@H]1C[C@@H](O)C=C[C@@]31CCN(C)C2 [GALANTAMINE] |  |  | 44 | 
COc1ccnc(N2CC[C@@]34C=C[C@H](O)C[C@@H]3Oc3c(OC)ccc(c34)C2)c1 |  | inactive | 70 | inhibition [5]: > 50%; IC50 (Acetylcholinesterase): 0.19 µM; Activity (SH-SY5Y [6]): Active; Activity (SH-SY5Y [7]): Active; Activity (SH-SY5Y [8]): inactive; Activity (SH-SY5Y [9]): Active
COc1cccc(N2CC[C@@]34C=C[C@H](O)C[C@@H]3Oc3c(OC)ccc(c34)C2)c1 | < 50 | inactive | 40 | 
CCc1ccc(-c2ccc(N3CC[C@@]45C=C[C@H](O)C[C@@H]4Oc4c(OC)ccc(c45)C3)cc2)cc1 | < 50 | inactive |  | Activity (SH-SY5Y [4]): Toxic
CCCCc1ccc(N2CC[C@@]34C=C[C@H](O)C[C@@H]3Oc3c(OC)ccc(c34)C2)cc1 | < 50 | inactive |  | Activity (SH-SY5Y [4]): Toxic
COc1ccc2c3c1O[C@H]1C[C@@H](O)C=C[C@@]31CCN(c1ccc(-c3ccccn3)cc1)C2 | < 50 | inactive | 38 | Activity (SH-SY5Y [4]): Toxic
COc1ccc2c3c1O[C@H]1C[C@@H](O)C=C[C@@]31CCN(c1cccc(C(F)(F)F)c1)C2 | < 50 | inactive | 53 | 
COc1ccc2c3c1O[C@H]1C[C@@H](O)C=C[C@@]31CCN(c1ccc(OC(C)C)nc1)C2 |  | inactive | 42 | 
COc1ccc2c3c1O[C@H]1C[C@@H](O)C=C[C@@]31CCN(c1ncccc1C)C2 |  | inactive | 37 | inhibition [5]: > 50%; IC50 (Acetylcholinesterase): 1.7 µM
COc1ccc2c3c1O[C@H]1C[C@@H](O)C=C[C@@]31CCN(c1ccc(F)cc1)C2 | < 50 | inactive | 39 | 
COc1ccc2c3c1O[C@H]1C[C@@H](O)C=C[C@@]31CCN(c1ccc(C)cc1)C2 | < 50 | inactive |  | Activity (SH-SY5Y [4]): Toxic
COc1ccc2c3c1O[C@H]1C[C@@H](O)C=C[C@@]31CCN(c1ccccn1)C2 |  | inactive | 59 | inhibition [5]: > 50%; IC50 (Acetylcholinesterase): 3.6 µM
COc1ccc2c3c1O[C@H]1C[C@@H](O)C=C[C@@]31CCN(c1ncccc1F)C2 |  | inactive |  | Activity (SH-SY5Y [4]): Toxic
